What was measured:
Type in all cases: in vivo
[1] = tested on: Kochia (Kochia scoparia); test: Test A preemergence
In short: (§1)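 Each rating is a visual injury score from 0 to 100 given about 10 d after treatment, judged against untreated controls kept alongside in the greenhouse. In loam soil–sand blend, seeds got a preemergence directed soil spray, while postemergence plants were 2 to 10 cm tall at spraying.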

[2] = tested on: barnyardgrass (Echinochloa crus-galli); test: Test A preemergence
In short: as §1

[3] = tested on: giant foxtail (Setaria faberii); test: Test A preemergence
In short: as §1

[4] = tested on: pigweed (Amaranthus retroflexus); test: Test A preemergence; conditions: preemergence
[5] = tested on: ragweed (common ragweed, Ambrosia elatior); test: Test A preemergence; conditions: preemergence
In short: as §1

[6] = tested on: ryegrass, Italian (Italian ryegrass, Lolium multiflorum); test: Test A preemergence; conditions: preemergence
In short: as §1

[7] = tested on: Galium (catchweed bedstraw, Galium aparine); test: Test A postemergence; conditions: postemergence, 0 to 100 scale (0 no effect, 100 complete control)
In short: as §1

[8] = tested on: Kochia (Kochia scoparia); test: Test A postemergence; conditions: postemergence, 0 to 100 scale (0 no effect, 100 complete control)
In short: as §1

[9] = tested on: barnyardgrass (Echinochloa crus-galli); test: Test A postemergence; conditions: postemergence, 0 to 100 scale (0 no effect, 100 complete control)
In short: as §1

[10] = tested on: blackgrass (Alopecurus myosuroides); test: Test A postemergence; conditions: postemergence, 0 to 100 scale (0 no effect, 100 complete control)
In short: as §1

[11] = tested on: corn (Zea mays); test: Test A postemergence; conditions: postemergence, 0 to 100 scale (0 no effect, 100 complete control)
In short: as §1

[12] = tested on: giant foxtail (Setaria faberii); test: Test A postemergence; conditions: postemergence, 0 to 100 scale (0 no effect, 100 complete control)
In short: as §1

[13] = tested on: pigweed (Amaranthus retroflexus); test: Test A postemergence; conditions: postemergence, 0 to 100 scale (0 no effect, 100 complete control)
In short: as §1

[14] = tested on: ragweed (common ragweed, Ambrosia elatior); test: Test A postemergence; conditions: postemergence, 0 to 100 scale (0 no effect, 100 complete control)
In short: as §1

[15] = tested on: ryegrass, Italian (Italian ryegrass, Lolium multiflorum); test: Test A postemergence; conditions: postemergence, 0 to 100 scale (0 no effect, 100 complete control)
In short: as §1

[16] = tested on: wheat (Triticum aestivum); test: Test A postemergence; conditions: postemergence, 0 to 100 scale (0 no effect, 100 complete control)
In short: as §1

[17] = tested on: barnyardgrass (Echinochloa crus-galli); test: Test B flooded paddy test; conditions: Flood, 0 to 100 scale where 0 is no effect and 100 is complete control, 13 to 15 d
In short: (§2)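 Visual ratings (0 none to 100 complete control) are relative to untreated plants, taken 13–15 d after treatment in a greenhouse. Test material went straight into floodwater standing 3 cm above the soil, kept constant, on plants at the 2-leaf stage.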

[18] = tested on: ducksalad (Heteranthera limosa); test: Test B flooded paddy test; conditions: Flood, 0 to 100 scale where 0 is no effect and 100 is complete control, 13 to 15 d
In short: as §2

[19] = tested on: rice (Oryra sativa); test: Test B flooded paddy test; conditions: Flood, 0 to 100 scale where 0 is no effect and 100 is complete control, 13 to 15 d
In short: as §2

[20] = tested on: sedge, umbrella (small-flower umbrella sedge, Cyperus difformis); test: Test B flooded paddy test; conditions: Flood, 0 to 100 scale where 0 is no effect and 100 is complete control, 13 to 15 d
In short: as §2

[21] = 125 g ai/ha, Preemergence, visual injury after approximately 10 d, 0 to 100 scale where 0 is no effect and 100 is complete control
[22] = 500 g ai/ha, preemergence, 0 to 100 scale, 0 = no effect, 100 = complete control
[23] = 125 g ai/ha, visual rating after approx. 10 d, 0 to 100 scale where 0 is no effect and 100 is complete control
[24] = 500 g ai/ha, 0 to 100 scale, 0 = no effect, 100 = complete control
[25] = 125 g ai/ha, visual injury after approximately 10 d
[26] = 500 g ai/ha, visual injury, approx. 10 d
[27] = 125 g ai/ha, visual rating after approx. 10 d
[28] = 125 g ai/ha, preemergence, visual rating after approx. 10 d, 0 to 100 scale where 0 is no effect and 100 is complete control

O=C1NCC(c2cccc(Br)c2)C1C(=O)Nc1cccc(F)c1F (racemic) [Compound 688]
Plant response rating, Kochia [1, 21]: 30
Plant response rating, Kochia [1, 22]: 50
Plant response rating, Barnyardgrass [2, 21]: 90
Plant response rating, Barnyardgrass [2, 22]: 90
Plant response rating, Foxtail, Giant [3, 21]: 90
Plant response rating, Foxtail, Giant [3, 22]: 90
Plant response rating, Pigweed [4, 23]: 30
Plant response rating, Pigweed [4, 24]: 40
Plant response rating, Ragweed [5, 23]: 20
Plant response rating, Ragweed [5, 24]: 40
Plant response rating, Ryegrass, Italian [6, 23]: 0
Plant response rating, Ryegrass, Italian [6, 24]: 20
Plant response rating, Galium [7, 25]: 40
Plant response rating, Galium [7, 26]: 50
Plant response rating, Kochia [8, 25]: 40
Plant response rating, Kochia [8, 26]: 60
Plant response rating, Barnyardgrass [9, 27]: 90
Plant response rating, Barnyardgrass [9, 26]: 90
Plant response rating, Blackgrass [10, 27]: 50
Plant response rating, Blackgrass [10, 26]: 60
Plant response rating, Corn [11, 25]: 40
Plant response rating, Corn [11, 26]: 70
Plant response rating, Foxtail, Giant [12, 25]: 90
Plant response rating, Foxtail, Giant [12, 26]: 90
Plant response rating, Pigweed [13, 25]: 30
Plant response rating, Pigweed [13, 26]: 50
Plant response rating, Ragweed [14, 25]: 30
Plant response rating, Ragweed [14, 26]: 50
Plant response rating, Ryegrass, Italian [15, 25]: 40
Plant response rating, Ryegrass, Italian [15, 26]: 60
Plant response rating, Wheat [16, 25]: 20
Plant response rating, Wheat [16, 26]: 70
Plant response rating, Barnyardgrass ([17]; 250 g ai/ha): 35
Plant response rating, Ducksalad ([18]; 250 g ai/ha): 100
Plant response rating, Rice ([19]; 250 g ai/ha): 0
Plant response rating, Sedge, Umbrella ([20]; 250 g ai/ha): 0

O=C1NCC(c2cccc(OC(F)(F)C(F)F)c2)C1C(=O)Nc1ccccc1Cl (racemic) [Compound 699]
Plant response rating, Kochia [1, 28]: 0
Plant response rating, Kochia [1, 22]: 70
Plant response rating, Barnyardgrass [2, 28]: 90
Plant response rating, Barnyardgrass [2, 22]: 90
Plant response rating, Foxtail, Giant [3, 28]: 90
Plant response rating, Foxtail, Giant [3, 22]: 90
Plant response rating, Pigweed [4, 23]: 30
Plant response rating, Pigweed [4, 24]: 50
Plant response rating, Ragweed [5, 23]: 0
Plant response rating, Ragweed [5, 24]: 70
Plant response rating, Ryegrass, Italian [6, 23]: 20
Plant response rating, Ryegrass, Italian [6, 24]: 40
Plant response rating, Galium [7, 25]: 50
Plant response rating, Galium [7, 26]: 60
Plant response rating, Kochia [8, 25]: 30
Plant response rating, Kochia [8, 26]: 50
Plant response rating, Barnyardgrass [9, 25]: 50
Plant response rating, Barnyardgrass [9, 26]: 80
Plant response rating, Blackgrass [10, 25]: 30
Plant response rating, Blackgrass [10, 26]: 60
Plant response rating, Corn [11, 25]: 30
Plant response rating, Corn [11, 26]: 60
Plant response rating, Foxtail, Giant [12, 25]: 50
Plant response rating, Foxtail, Giant [12, 26]: 80
Plant response rating, Pigweed [13, 25]: 20
Plant response rating, Pigweed [13, 26]: 20
Plant response rating, Ragweed [14, 25]: 0
Plant response rating, Ragweed [14, 26]: 30
Plant response rating, Ryegrass, Italian [15, 25]: 0
Plant response rating, Ryegrass, Italian [15, 26]: 30
Plant response rating, Wheat [16, 25]: 0
Plant response rating, Wheat [16, 26]: 20
Plant response rating, Barnyardgrass ([17]; 500 g ai/ha): 60
Plant response rating, Ducksalad ([18]; 500 g ai/ha): 90
Plant response rating, Rice ([19]; 500 g ai/ha): 0
Plant response rating, Sedge, Umbrella ([20]; 500 g ai/ha): 0

O=C1NCC(c2ccc(I)cc2)C1C(=O)Nc1ccc(F)cc1F (racemic) [Compound 701]
Plant response rating, Kochia [1, 28]: 0
Plant response rating, Kochia [1, 22]: 0
Plant response rating, Barnyardgrass [2, 28]: 60
Plant response rating, Barnyardgrass [2, 22]: 90
Plant response rating, Foxtail, Giant [3, 28]: 90
Plant response rating, Foxtail, Giant [3, 22]: 90
Plant response rating, Pigweed [4, 23]: 0
Plant response rating, Pigweed [4, 24]: 0
Plant response rating, Ragweed [5, 23]: 0
Plant response rating, Ragweed [5, 24]: 0
Plant response rating, Ryegrass, Italian [6, 23]: 0
Plant response rating, Ryegrass, Italian [6, 24]: 0
Plant response rating, Galium [7, 25]: 0
Plant response rating, Galium [7, 26]: 0
Plant response rating, Kochia [8, 25]: 0
Plant response rating, Kochia [8, 26]: 0
Plant response rating, Barnyardgrass [9, 25]: 60
Plant response rating, Barnyardgrass [9, 26]: 70
Plant response rating, Blackgrass [10, 25]: 0
Plant response rating, Blackgrass [10, 26]: 0
Plant response rating, Corn [11, 25]: 0
Plant response rating, Corn [11, 26]: 0
Plant response rating, Foxtail, Giant [12, 25]: 60
Plant response rating, Foxtail, Giant [12, 26]: 70
Plant response rating, Pigweed [13, 25]: 0
Plant response rating, Pigweed [13, 26]: 0
Plant response rating, Ragweed [14, 25]: 0
Plant response rating, Ragweed [14, 26]: 0
Plant response rating, Ryegrass, Italian [15, 25]: 0
Plant response rating, Ryegrass, Italian [15, 26]: 0
Plant response rating, Wheat [16, 25]: 0
Plant response rating, Wheat [16, 26]: 0
Plant response rating, Barnyardgrass ([17]; 500 g ai/ha): 65
Plant response rating, Ducksalad ([18]; 500 g ai/ha): 100
Plant response rating, Rice ([19]; 500 g ai/ha): 0
Plant response rating, Sedge, Umbrella ([20]; 500 g ai/ha): 0

CC(=O)c1ccccc1NC(=O)C1C(=O)NCC1c1cccc(C(F)(F)F)c1 (racemic) [Compound 706]
Plant response rating, Kochia [1, 28]: 0
Plant response rating, Kochia [1, 22]: 0
Plant response rating, Barnyardgrass [2, 28]: 0
Plant response rating, Barnyardgrass [2, 22]: 70
Plant response rating, Foxtail, Giant [3, 28]: 0
Plant response rating, Foxtail, Giant [3, 22]: 80
Plant response rating, Pigweed [4, 23]: 0
Plant response rating, Pigweed [4, 24]: 0
Plant response rating, Ragweed [5, 23]: 0
Plant response rating, Ragweed [5, 24]: 0
Plant response rating, Ryegrass, Italian [6, 23]: 0
Plant response rating, Ryegrass, Italian [6, 24]: 0
Plant response rating, Galium [7, 25]: 0
Plant response rating, Galium [7, 26]: 0
Plant response rating, Kochia [8, 25]: 0
Plant response rating, Kochia [8, 26]: 0
Plant response rating, Barnyardgrass [9, 25]: 0
Plant response rating, Barnyardgrass [9, 26]: 50
Plant response rating, Blackgrass [10, 25]: 0
Plant response rating, Blackgrass [10, 26]: 0
Plant response rating, Corn [11, 25]: 0
Plant response rating, Corn [11, 26]: 0
Plant response rating, Foxtail, Giant [12, 25]: 0
Plant response rating, Foxtail, Giant [12, 26]: 30
Plant response rating, Pigweed [13, 25]: 0
Plant response rating, Pigweed [13, 26]: 0
Plant response rating, Ragweed [14, 25]: 0
Plant response rating, Ragweed [14, 26]: 0
Plant response rating, Ryegrass, Italian [15, 25]: 0
Plant response rating, Ryegrass, Italian [15, 26]: 0
Plant response rating, Wheat [16, 25]: 0
Plant response rating, Wheat [16, 26]: 0
Plant response rating, Barnyardgrass ([17]; 500 g ai/ha): 0
Plant response rating, Ducksalad ([18]; 500 g ai/ha): 0
Plant response rating, Rice ([19]; 500 g ai/ha): 15
Plant response rating, Sedge, Umbrella ([20]; 500 g ai/ha): 0

— patent publication US12077503B2, “Substituted cyclic amides and their use as herbicides” (FMC CORPORATION, priority 2015, dated 2024)
